# From ChEMBL document CHEMBL1201862, “PubChem BioAssay data set” (2004)
#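 Tested at 5 concentrations; 48 h exposure; 96-well plates; endpoints linearly interpolated, else capped at highest concentration. GI50 = concentration required for 50% inhibition of growth.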 Active and inactive are the calls of the source. Rule as the data show it: active = GI50 up to about 1.1 µM and inactive = higher.
# Columns and labels:
# Assay in all cases: NCI anticancer screen, dose series, 48 h
# SK-MEL-5 = test system: SK-MEL-5
# OVCAR-3 = test system: OVCAR-3
# COLO 205 = test system: COLO 205
# DU-145 = test system: DU-145
# A549 = test system: A549
# SF-295 = test system: SF-295
# HCT-116 = test system: HCT-116
# HCC 2998 = test system: HCC 2998
# SK-OV-3 = test system: SK-OV-3
# MDA-MB-435 = test system: MDA-MB-435
# SK-MEL-2 = test system: SK-MEL-2
# MCF7 = test system: MCF7
# MDA-N = test system: MDA-N
# NCI-H226 = test system: NCI-H226
# MOLT-4 = test system: MOLT-4
# SNB-75 = test system: SNB-75
# Malme-3M = test system: Malme-3M
# 786-0 = test system: 786-0
# SN12C = test system: SN12C
# TK-10 = test system: TK-10
SMILES,GI50 (SK-MEL-5),GI50 (OVCAR-3),GI50 (COLO 205),GI50 (DU-145),GI50 (A549),GI50 (SF-295),GI50 (HCT-116),GI50 (HCC 2998),GI50 (SK-OV-3),GI50 (MDA-MB-435),GI50 (SK-MEL-2),GI50 (MCF7),GI50 (MDA-N),GI50 (NCI-H226),GI50 (MOLT-4),GI50 (SNB-75),GI50 (Malme-3M),GI50 (786-0),GI50 (SN12C),GI50 (TK-10)
O=C1c2ccccc2C(=O)c2c1ccc1nc3c(nc21)-c1c2ccccc2cc2cccc-3c12,46.7 µM (inactive),43.8 µM (inactive),90.8 µM (inactive),29.2 µM (inactive),45.6 µM (inactive),21.4 µM (inactive),5.56 µM (inactive),> 95.3 µM (inactive),41.1 µM (inactive),18.6 µM (inactive),68.9 µM (inactive),17.6 µM (inactive),32.6 µM (inactive),> 68.9 µM (inactive),18.6 µM (inactive),19.5 µM (inactive),51.9 µM (inactive),21.5 µM (inactive),35.8 µM (inactive),52.4 µM (inactive)
CC(N/N=C(\S)N1CCCC1)c1cccnn1 (stereo not given),0.279 µM (active),0.29 µM (active),0.376 µM (active),0.789 µM (active),0.342 µM (active),0.451 µM (active),0.335 µM (active),18.5 µM (inactive),0.337 µM (active),1.13 µM (inactive),0.906 µM (active),0.308 µM (active),1.84 µM (inactive),1.13 µM (inactive),0.351 µM (active),7.52 µM (inactive),0.849 µM (active),0.452 µM (active),0.778 µM (active),0.54 µM (active)
CCCCCCCCCCCCCCC[C@@H](O)C[N+](C)(C)CCO,2.72 µM (inactive),4.42 µM (inactive),2.57 µM (inactive),7.66 µM (inactive),3.49 µM (inactive),2.37 µM (inactive),3.99 µM (inactive),1.8 µM (inactive),7.76 µM (inactive),4.84 µM (inactive),9.55 µM (inactive),5.85 µM (inactive),5.98 µM (inactive),2.79 µM (inactive),2.17 µM (inactive),0.597 µM (active),2.81 µM (inactive),0.927 µM (active),5.61 µM (inactive),1.31 µM (inactive)
Cc1cc(=O)[nH]c2cc(NC(=O)C(CCCNC(=N)N)NC(=O)OCc3ccccc3)ccc12 (stereo not given),> 100 µM (inactive),> 100 µM (inactive),> 100 µM (inactive),> 100 µM (inactive),> 100 µM (inactive),48.5 µM (inactive),> 100 µM (inactive),> 100 µM (inactive),4.28 µM (inactive),> 100 µM (inactive),> 100 µM (inactive),> 100 µM (inactive),> 100 µM (inactive),> 100 µM (inactive),> 100 µM (inactive),> 100 µM (inactive),> 100 µM (inactive),> 100 µM (inactive),> 100 µM (inactive),> 100 µM (inactive)
CC/C(Cl)=N\OC(=O)Nc1ccc(F)c([N+](=O)[O-])c1,12.4 µM (inactive),5.08 µM (inactive),2.78 µM (inactive),19.5 µM (inactive),20.5 µM (inactive),20.7 µM (inactive),7 µM (inactive),29.4 µM (inactive),19.1 µM (inactive),16.3 µM (inactive),17 µM (inactive),8.81 µM (inactive),17.7 µM (inactive),33.3 µM (inactive),2.72 µM (inactive),18.2 µM (inactive),2.13 µM (inactive),6.64 µM (inactive),17.5 µM (inactive),11.6 µM (inactive)
